These results are taken from ChEMBL document CHEMBL3877282, “Synthesis and structure-activity studies of side chain analogues of the anti-tubercular agent, Q203” (Eur J Med Chem, 2017).

Converted amounts (≈) assume the structure as drawn.

Series [1] relates to Mycobacterium tuberculosis. Briefly: Antimycobacterial activity against GFP-fused Mycobacterium tuberculosis H37Rv in liquid broth culture medium. In kind it is functional.
A short description of series [2]: Oral bioavailability in mouse at 10 mg/kg. As to conditions: in vivo. In kind it is ADME, organism-based.
A short description of series [3]: Clearance in mouse at 2 mg/kg, iv. In kind it is ADME, organism-based. Particulars: in vivo.
Series [4] is described as follows: Volume of distribution at steady state in mouse at 2 mg/kg, iv. As to conditions: in vivo, read-out: Vdss. In kind it is ADME, organism-based.
For series [5], the system named is Mycobacterium tuberculosis. Briefly: Antimycobacterial activity against GFP-fused Mycobacterium tuberculosis H37Rv infected in macrophages. In kind it is functional.
A short description of series [6]: Half life in mouse at 10 mg/kg, po. As to conditions: in vivo. In kind it is ADME, organism-based.
A short description of series [7]: Half life in mouse at 2 mg/kg, iv. It counts as ADME, organism-based. Particulars: in vivo.
A short description of series [8]: Tmax in mouse at 10 mg/kg, po. It counts as ADME, organism-based. Particulars: in vivo.
Series [9] in a line: AUC (0 to infinity) in mouse at 10 mg/kg, po. In kind it is ADME, organism-based. Further details: dose 10 mg/kg, route oral, time infinity. Particulars: in vivo.
Series [10] in a line: Cmax in mouse at 10 mg/kg, po. In kind it is ADME, organism-based. Further details: dose 10 mg/kg, route oral. Particulars: in vivo.

The compound `CCc1nc2ccc(Cl)cn2c1C(=O)NCc1ccc(OCc2ccc(OC(F)(F)F)cc2)cc1` had an MIC80 in series [1] of 0.015 µM (≈ 0.00756 µg/mL).
Turning to `CCc1nc2cc(Cl)ccn2c1C(=O)NCc1ccc(OCc2ccc(F)cc2)cc1`, the MIC80 in [1] came to 0.02 µM (≈ 0.00876 µg/mL).
Consider `CCc1nc2ccc(Cl)cn2c1C(=O)NCc1ccc(N2CCN(C(=O)c3ccc(F)cc3)CC2)cc1`, for which the MIC80 in series [1] is 0.534 µM (≈ 0.278 µg/mL).
Turning to `CCc1nc2ccc(Cl)cn2c1C(=O)NCc1ccc(N2CCC(Oc3ccc(Cl)cc3)CC2)cc1`, the bioavailability in [2] was found to be 51.4%. The clearance in series [3] turned out to be 2.83 mL/min/kg. In addition, the Vd in series [4] came to 1.34 L/kg. The MIC80 in series [5] is less than 0.001 µM; in series [1], 0.003 µM (≈ 0.00157 µg/mL). Further, the half-life in series [6] was 1130 min; in series [7], 846 min. Further, the Tmax in series [8] was 2 h. In addition, the AUC(0-inf) in series [9] amounted to 30300 ng·h/mL. Also, the Cmax in series [10] turned out to be 3540 ng/mL.
On to `CCc1nc2cc(Cl)ccn2c1C(=O)NCc1ccc(Nc2ccc(OC(F)(F)F)cc2)cc1`, for which the MIC80 in series [1] was 0.839 µM (≈ 0.41 µg/mL).
The compound `CCc1nc2cc(Cl)ccn2c1C(=O)NCc1ccc(OCc2ccc(OC(F)(F)F)cc2)cc1` yielded a bioavailability in [2] of 53.4%. The compound also had a clearance in [3] of 5.77 mL/min/kg. Further, the Vd in series [4] stood at 4.68 L/kg. The MIC80 in series [5] was less than 0.001 µM; in [1], 0.015 µM (≈ 0.00756 µg/mL). Besides, the half-life was 714 min in series [6] and 834 min in series [7]. For the same compound, the time to peak (Tmax) in series [8] is 0.5 h. Moreover, in series [9], the total exposure AUC(0-inf) is 11500 ng·h/mL. For the same compound, in [10], the peak level (Cmax) was 1640 ng/mL.
In the case of `CCc1nc2ccc(Br)cn2c1C(=O)NCc1ccc(OCc2ccc(OC(F)(F)F)cc2)cc1`, the MIC80 in [1] amounted to 0.432 µM (≈ 0.237 µg/mL).
`CCc1nc2ccc(Cl)cn2c1C(=O)NCc1ccc(N2CCC(Oc3ccc(Cl)cc3)C2)cc1` (single isomer, unassigned; 40): in [1], the MIC80 was 0.006 µM (≈ 0.00306 µg/mL).
`CCc1nc2ccc(Cl)cn2c1C(=O)NCc1ccc(N2CCN(C(=O)Cc3ccc(F)cc3)CC2)cc1`: the MIC80 in series [1] was 0.373 µM (≈ 0.199 µg/mL).
Take `CCc1nc2ccc(Cl)cn2c1C(=O)NCc1ccc(N2CCC(Oc3ccc(OC(F)(F)F)cc3)CC2)cc1`: the MIC80 in [1] came to 0.007 µM (≈ 0.00401 µg/mL).
For `CCc1nc2ccc(Cl)cn2c1C(=O)NCc1ccc(N2CCC(Oc3ccc(F)cc3)CC2)cc1`, the MIC80 in series [1] worked out at 0.01 µM (≈ 0.00507 µg/mL).
In the case of `CCc1nc2ccc(Cl)cn2c1C(=O)NCc1ccc(N2CCN(Cc3ccc(OC(F)(F)F)cc3)CC2)cc1`, the figures for the MIC80 in series [5] and in series [1] were 0.082 µM (≈ 0.0469 µg/mL) and 0.015 µM (≈ 0.00858 µg/mL), respectively.
Taken in the same sequence, the figures for `NNC(=O)c1ccncc1` [ISONIAZID] were 0.2 µM (≈ 0.0274 µg/mL) and 0.49 µM (≈ 0.0672 µg/mL).
On to `CCc1nc2cc(Cl)ccn2c1C(=O)NCc1ccc(N2CCC(Cc3ccccc3)CC2)cc1`, for which the MIC80 in series [1] came to 0.022 µM (≈ 0.0107 µg/mL).
Same read-out and setting: with `CCc1nc2ccccn2c1C(=O)NCc1ccc(OCc2ccc(OC(F)(F)F)cc2)cc1` the figure was 0.027 µM (≈ 0.0127 µg/mL).
In [2], `CCc1nc2ccc(Cl)cn2c1C(=O)NCc1ccc(N2CCC(Oc3ccc(C(F)(F)F)cc3)CC2)cc1` yielded a bioavailability of 65.6%. In series [3], the clearance is 2.23 mL/min/kg. In [4], the Vd amounted to 2.39 L/kg. In addition, the MIC80 turned out to be 0.009 µM (≈ 0.00501 µg/mL) in [5] and 0.026 µM (≈ 0.0145 µg/mL) in series [1]. In addition, the half-life in series [6] was 1200 min; in series [7], 1180 min. For the same compound, the Tmax in [8] worked out at 2 h. The same compound returned an AUC(0-inf) in series [9] of 48900 ng·h/mL. In series [10], this compound had a Cmax of 4100 ng/mL.
In turn, `CCc1nc2ccc(F)cn2c1C(=O)NCc1ccc(OCc2ccc(OC(F)(F)F)cc2)cc1` displayed a bioavailability in [2] of 80.5%. The same compound came in with a clearance in [3] of 4.76 mL/min/kg. The Vd in [4] turned out to be 3.85 L/kg. In addition, the MIC80 in series [5] came out at 0.028 µM (≈ 0.0136 µg/mL); in series [1], 0.084 µM (≈ 0.0409 µg/mL). In addition, the half-life in series [6] was 684 min; in series [7], 660 min. In addition, the Tmax in series [8] was 1 h. In addition, the AUC(0-inf) in [9] is 28200 ng·h/mL. The compound also yielded a Cmax in [10] of 2620 ng/mL.
Consider `CCc1nc2ccc(Cl)cn2c1C(=O)NCc1ccc(N2CCC(Oc3ccc(Cl)cc3)C2)cc1` (single isomer, unassigned; 41), for which the MIC80 in [1] is 0.014 µM (≈ 0.00713 µg/mL).
The compound `CCc1nc2ccc(Cl)cn2c1C(=O)NCc1ccc(N2CCC(COc3ccc(OC(F)(F)F)cc3)CC2)cc1` came in with an MIC80 in series [1] of 0.037 µM (≈ 0.0217 µg/mL).
Regarding `CCc1nc2cc(Cl)ccn2c1C(=O)NCc1ccc(N2CCC(Oc3ccc(OC(F)(F)F)cc3)CC2)cc1`, the MIC80 in [1] was found to be 0.021 µM (≈ 0.012 µg/mL).
Regarding `CCc1nc2cc(Cl)ccn2c1C(=O)NCc1ccc(NCc2ccc(OC(F)(F)F)cc2)cc1`, in [1], the MIC80 was determined as 0.25 µM (≈ 0.126 µg/mL).
`CCc1nc2cc(Cl)ccn2c1C(=O)NCc1ccc(N(C)c2ccc(OC(F)(F)F)cc2)cc1`: the MIC80 was found to be 0.023 µM (≈ 0.0116 µg/mL) in [5] and 0.04 µM (≈ 0.0201 µg/mL) in [1].
As for `CCc1nc2cc(Cl)ccn2c1C(=O)NCc1ccc(Oc2ccc(OC(F)(F)F)cc2)cc1`, the MIC80 in [5] came to 0.027 µM (≈ 0.0132 µg/mL); in series [1], 0.064 µM (≈ 0.0314 µg/mL).

The term bioavailability denotes the share of a dose that reaches the circulation, judged against a reference dose that is usually intravenous. Low readings indicate poor availability, high ones good availability. As usually defined, the clearance is the volume of plasma or blood freed of the substance per unit of time. Low readings indicate inefficient removal, high ones efficient removal. Usually half-life stands for the time in which the quantity being followed falls by half. Usually Tmax stands for the time at which the peak concentration occurs. As usually defined, the AUC(0-inf) is the area under the concentration-time curve extrapolated to infinity. Higher therefore signals high exposure. As a reminder, the Cmax is the peak of the concentration-time curve.
